SMILES strings stand for the structures. ≈ marks a conversion by molar mass, not a printed value.

For assay [1], the system named is MRSA ATCC 43300. The experiment in a line: MBC assay. It counts as cell-based, Staphylococcus aureus. On the procedure: (§1) Determination of MBCs refers to the minimum concentrations of antibacterial agents required to kill 99.9% of the test microorganisms after 24 h of incubation. After obtaining the MICs value, the 96-well plates were placed at 37 °C and incubated for 24 h. One hundred microliter aliquots of the bacterial suspensions were taken from the wells without visible bacterial growth and then plated onto MHA plates. […] The MBC assay was conducted at least in triplicate.

Assay [2] deals with S. aureus AD3 (clinical strain). The experiment in a line: MIC, broth dilution micro-method. The class given is cell-based. The settings on record: Staphylococcus aureus, 24 h, MHB. On the procedure:
(§2) The MICs of NPDM against MRSA were determined by the broth dilution micro-method. Briefly, the stock solution of NPDM and the reference drug tiamulin were diluted by a two-fold serial dilution method with MHB in a 96-well plate to provide concentration ranges of 16~0.032 μg/mL. Then 100 μL of bacterial suspensions in log phase were diluted to 10^6 CFU/mL with MHB and were added to each well to make the final concentrations of the test compounds ranging from 8 to 0.016 μg/mL. The bacterial suspension (no drugs but solvent) was used as the positive control and MHB (no cultures) was used as the negative control. […] The MICs assay was carried out in triplicate.
Background: In broth dilution the organism is exposed to a series of concentrations in liquid medium.

In assay [3] the test system is MRSA ATCC 43300. The experiment in a line: MIC, broth dilution micro-method. As to conditions: Staphylococcus aureus, 24 h, MHB. It counts as cell-based. On the procedure:
as §2

The subject of assay [4] is S. aureus 144 (clinical strain). The experiment in a line: MIC, broth dilution micro-method. It counts as cell-based. As to conditions: Staphylococcus aureus, 24 h, MHB. On the procedure: as §2
In assay [5] the test system is S. aureus ATCC 29213. Kind of assay: MIC, broth dilution micro-method. It counts as cell-based. The settings on record: Staphylococcus aureus, ATCC29213, 24 h, MHB. On the procedure: as §2
For assay [6], the system named is MRSA ATCC 43300. Kind of assay: Post-antibiotic effect (PAE) assay. The class given is cell-based, Staphylococcus aureus. On the procedure: The PAE was carried out as described in the literature. The MRSA was diluted to 10^6 CFU/mL in MHB. The NPDM or tiamulin was added into the bacteria solution at the final concentrations of 2 × MIC and 4 × MIC. Then all tubes were incubated at 37 °C for 1 h or 2 h. Each of the above inoculums was diluted 1000-fold with pre-warmed MHB to remove the test compounds and placed in a water bath at 37 °C immediately. One hundred microliters of suspension were taken from each culture, diluted 10-fold in sterile saline, and inoculated on MHA plates at 0, 1, 2, 4, and 6 h after inoculation. The total number comprising the colonies was counted after incubation at 37 °C for 20 h. The PAE was calculated referring to published methods. The experiment was performed in triplicate.

Assay [7] deals with S. aureus AD3 (clinical strain). Kind of assay: MBC assay. It counts as cell-based. The settings on record: Staphylococcus aureus. On the procedure: as §1
Assay [8] deals with S. aureus 144 (clinical strain). Kind of assay: MBC assay. The settings on record: Staphylococcus aureus. It counts as cell-based. The procedure: as §1
In assay [9] the test system is S. aureus ATCC 29213. Kind of assay: MBC assay. It counts as cell-based. As to conditions: Staphylococcus aureus, ATCC29213. The procedure: as §1
The test system of assay [10] is BRL-3A cells. Kind of assay: Cytotoxicity, MTT assay. It counts as cell-based. The settings on record: Rattus norvegicus, 16 h, read-out: 50% inhibition concentration (IC50), cell viability. The procedure: The cytotoxicity of NPDM was evaluated by the MTT assay as previously reported. Briefly, the medium containing 1 × 10^5 BRL-3A cells per 1 mL was seeded into a 96-well plate at 100 μL per well. After incubation for 48 h, media were replaced with 100 μL of serial dilutions of test compounds and incubated for 16 h. The absorbance (A) was measured at 490 nm by an automatic microplate reader (BIO-TEK Instrument Inc., Winooski, VT, USA). The cell viability was calculated according to Equation (1):(1) Cell viability (%) = (Asimple−Anegative)/(Apositive−Anegative)×100%
A graph was constructed by plotting the inhibition percentage versus various concentrations of NPDM and tiamulin, from which the IC50 of NPDM or tiamulin was calculated. The measurement was repeated in triplicate.
In general terms: Tetrazolium assays rely on reduction of a dye to a coloured formazan, in cell work by metabolically active cells.

For assay [11], the system named is MRSA ATCC 43300. Kind of assay: Neutropenic mouse systemic infection model. The settings on record: 30 mg/kg i.v. The class given is in vivo, Staphylococcus aureus. On the procedure: The survival rate of mice was determined by the systemic infection model according to the literature with some modifications. Neutropenic mice (10 per group, half male and half female) were injected with 0.5 mL MRSA inoculum of 10^6 CFU/mL (100% minimum lethal dose) intraperitoneally. One hour after infection, the mice were administered with NPDM or tiamulin intravenously at a dose of 30 mg/kg body weight. Tiamulin was used as a reference drug. The survival of the mice was recorded for 7 days.

In assay [12] the test system is MRSA ATCC 43300. The experiment in a line: Neutropenic mouse thigh infection model. As to conditions: 20 mg/kg i.v., neutropenic mice. The class given is in vivo, Staphylococcus aureus. On the procedure:
(§3) The mouse thigh infection model was performed as described in the literature with minor modifications. Briefly, female mice had induced neutropenia (neutrophil count ≤ 100/mm^3) by administered intraperitoneally cyclophosphamide on day 4 (150 mg/kg) and day 1 (100 mg/kg) before the experiment. A bacterial suspension of 0.1 mL (MRSA or S. aureus) containing approximately 10^7 CFU/mL microorganism was injected into the posterior thigh of mice to establish infection. Two hours after infection, mice were intravenously injected with NPDM or tiamulin at 20 mg/kg. After 24 h, thighs (six per group) were collected upon euthanasia. Then, thighs were weighed and homogenized with sterile saline. Tissue homogenate was continuously diluted 10-fold and plated on MHA plates for colony counts. SPSS 19 software was used for statistical analysis and t-tests.

The test system of assay [13] is S. aureus ATCC 29213. Kind of assay: Neutropenic mouse thigh infection model. It counts as in vivo, Staphylococcus aureus. As to conditions: 20 mg/kg i.v., neutropenic mice. On the procedure: as §3

Take `C=C[C@]1(C)C[C@@H](OC(=O)CN2CCN(C(=O)CN3CCN(c4ccc([N+](=O)[O-])cc4)CC3)CC2)[C@]2(C)[C@H](C)CC[C@]3(CCC(=O)[C@H]32)[C@@H](C)[C@@H]1O` [NPDM, 22-(4-(2-(4-nitrophenyl-piperazin-1-yl)-acetyl)-piperazin-1-yl)-22-deoxypleuromutilin]: the minimal bactericidal concentration (MBC) (in general, the lowest tested concentration that kills the bacteria rather than only halting them) was determined as 0.125 mg/L (≈ 0.18 µM) in [1] (Staphylococcus aureus, MRSA ATCC 43300); 0.5 mg/L (≈ 0.721 µM) in [7]; 0.5 mg/L (≈ 0.721 µM) in [8]; 0.25 mg/L (≈ 0.36 µM) in [9]. For the same compound, in [1] (against MRSA), the MBC/MIC value result is recorded as “one”. Further, the MIC in assay [2], in assay [3], in assay [4] and in assay [5] was 0.125 mg/L (≈ 0.18 µM) in each case. Moreover, the PAE is 2.58 h in assay [6] (2 × MIC, exposure for 1 h); 3.62 h in [6] (2 × MIC, exposure for 2 h); 3.11 h in [6] (4 × MIC, exposure for 1 h); 4.03 h in [6] (4 × MIC, exposure for 2 h). Further, the “PAE longer than that of tiamulin” value in assay [6] (difference vs tiamulin) is recorded as 1~2 h. Besides, the IC50 in assay [10] was 9.64 mg/L (≈ 13.9 µM). Further, the “Survival rate at the endpoint” value in [11] (lethal MRSA challenge, 7 days, neutropenic mice) is on record as 70%. For the same compound, the “Survival rate higher than that of the tiamulin-treated group” value in [11] (difference vs tiamulin) came out at 20%. In addition, the “Reduction of mean MRSA counts in thighs vs untreated group” value in assay [12] (24 h) is given as ~ 1.61 log CFU/mL. The “Average amount of MRSA inoculum in thighs” value in [12] (24 h after treatment) is given as “(8.16 ± 3.70) × 10^7 CFU”. Further, the “Average amount of S. aureus inoculum in thighs” value in assay [13] (24 h after treatment) is “(1.23 ± 0.51) × 10^8 CFU”. For the same compound, the “Reduction of mean bacterial counts in thighs vs untreated group” value in assay [13] (S. aureus, 24 h) is reported as ~ 0.95 log CFU/mL.

The record behind these values is publication PMC8227856, “Antibacterial Activity of a Promising Antibacterial Agent: 22-(4-(2-(4-Nitrophenyl-piperazin-1-yl)-acetyl)-piperazin-1-yl)-22-deoxypleuromutilin” (Molecules, 2021).
